Experimental data reported in publication PMC6002837 (Bioorganic & medicinal chemistry letters, 2015).

Biological target: T1, Rtt109–Vps75 (Saccharomyces cerevisiae, UniProt Q07794)
T1 sequence (Q07794 1-436): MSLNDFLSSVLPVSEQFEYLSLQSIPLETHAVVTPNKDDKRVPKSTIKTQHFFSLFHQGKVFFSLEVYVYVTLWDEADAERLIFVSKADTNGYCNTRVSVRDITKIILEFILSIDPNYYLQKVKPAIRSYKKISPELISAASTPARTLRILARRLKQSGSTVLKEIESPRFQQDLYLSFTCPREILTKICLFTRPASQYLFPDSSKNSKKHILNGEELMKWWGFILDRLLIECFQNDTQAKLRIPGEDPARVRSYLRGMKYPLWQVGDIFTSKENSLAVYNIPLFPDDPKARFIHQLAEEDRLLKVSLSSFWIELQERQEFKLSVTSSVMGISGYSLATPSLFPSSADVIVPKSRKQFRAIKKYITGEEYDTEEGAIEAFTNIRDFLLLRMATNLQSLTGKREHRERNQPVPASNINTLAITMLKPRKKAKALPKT
T1 sequence (P53853 1-264 partner): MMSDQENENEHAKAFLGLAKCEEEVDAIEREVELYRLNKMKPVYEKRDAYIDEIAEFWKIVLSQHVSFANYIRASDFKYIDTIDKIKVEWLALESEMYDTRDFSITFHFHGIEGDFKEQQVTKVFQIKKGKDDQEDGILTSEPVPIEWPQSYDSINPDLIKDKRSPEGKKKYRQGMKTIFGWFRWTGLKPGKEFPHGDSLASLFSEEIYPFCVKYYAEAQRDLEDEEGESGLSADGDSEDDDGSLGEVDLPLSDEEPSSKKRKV
Test: in vitro [3H]-acetyl-CoA HAT assay, Rtt109–Vps75
Assay type: biochemical, yeast
Settings: radiolabeled HAT assay; p = 0.61, n = 3 for 1a

difference in IC50 values in presence or absence of DTT and BSA: significant decrease in IC50
SMILES: CCN(CC)c1ccc2c(C)c(-c3ccc(N4C(=O)C=CC4=O)cc3)c(=O)oc2c1 [CPM, N-[4-(7-diethylamino-4-methylcoumarin-3-yl)phenyl]maleimide]
